Experimental data as given in patent publication US20240228469A1, “PCSK9 INHIBITORS AND METHODS OF USE THEREOF” (AstraZeneca AB, priority 2022, published 2024).

Experiments:
PCSK9 [1] = target: T1, PCSK9 (Homo sapiens, UniProt Q8NBP7, G670E/V474I); experiment: biochemical
[2] = target: T2, potassium ion channel hERG (Homo sapiens, UniProt Q12809); experiment: Assay 5 hERG assay (patch clamp, CHO cells over-expressing hERG); format: cell-based; settings: SyncroPatch 384PE, room temperature, geometric mean, read-out: Assay 5 (hERG Hu CHO if EPh CR-Syncro) GMean IC50
T2 construct: expressed in transfected cells; host or cells: Chinese hamster ovary K1 (CHO)
T2 sequence (Q12809 whole entry): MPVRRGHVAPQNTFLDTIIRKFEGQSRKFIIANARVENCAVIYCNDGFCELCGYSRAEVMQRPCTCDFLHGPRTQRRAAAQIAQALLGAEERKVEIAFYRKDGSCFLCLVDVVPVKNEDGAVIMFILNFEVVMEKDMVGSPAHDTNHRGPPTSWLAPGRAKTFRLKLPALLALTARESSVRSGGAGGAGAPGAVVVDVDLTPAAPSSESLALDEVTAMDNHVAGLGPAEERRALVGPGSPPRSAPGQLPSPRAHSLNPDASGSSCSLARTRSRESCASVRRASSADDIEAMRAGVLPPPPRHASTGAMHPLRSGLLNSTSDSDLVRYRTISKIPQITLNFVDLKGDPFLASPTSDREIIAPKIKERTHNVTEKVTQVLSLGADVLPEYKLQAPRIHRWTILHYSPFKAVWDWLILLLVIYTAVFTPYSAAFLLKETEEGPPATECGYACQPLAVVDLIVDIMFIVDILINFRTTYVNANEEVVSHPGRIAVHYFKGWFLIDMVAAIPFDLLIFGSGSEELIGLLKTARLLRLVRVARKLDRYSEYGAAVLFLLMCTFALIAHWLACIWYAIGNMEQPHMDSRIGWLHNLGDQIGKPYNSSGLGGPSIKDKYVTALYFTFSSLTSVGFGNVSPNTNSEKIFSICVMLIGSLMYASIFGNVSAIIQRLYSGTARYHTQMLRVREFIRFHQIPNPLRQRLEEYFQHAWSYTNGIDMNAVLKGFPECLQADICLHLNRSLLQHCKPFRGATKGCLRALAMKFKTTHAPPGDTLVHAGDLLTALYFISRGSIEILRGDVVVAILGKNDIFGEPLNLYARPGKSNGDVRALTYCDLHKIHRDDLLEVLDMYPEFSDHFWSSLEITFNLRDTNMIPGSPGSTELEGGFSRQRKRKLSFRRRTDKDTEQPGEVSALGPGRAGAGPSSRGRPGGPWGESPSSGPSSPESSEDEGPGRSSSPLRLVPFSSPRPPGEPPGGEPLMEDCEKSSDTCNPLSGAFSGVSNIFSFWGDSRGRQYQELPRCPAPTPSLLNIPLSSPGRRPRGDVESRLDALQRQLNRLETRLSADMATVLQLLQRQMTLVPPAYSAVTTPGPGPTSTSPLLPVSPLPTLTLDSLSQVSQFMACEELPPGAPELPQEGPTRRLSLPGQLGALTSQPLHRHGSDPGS
How it was run: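 hERG currents recorded by automated patch clamp at room temperature in CHO-K1 cells, 6-point cumulative concentrations. SyncroPatch runs used KF-based internal (pH 7.2) and NMDG-containing external solution (pH 7.4), 0.33% DMSO; QPatchII runs used 2% or 0.4% DMSO. Only wells meeting seal-resistance and current-size criteria kept.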

PCSK9 [3] = target: T3, PCSK9 (Homo sapiens, UniProt Q8NBP7); experiment: Assay 2 Biophysical human PCSK9 assay (SPR, Biacore); format: binding; design: biotinylated human PCSK9 (31-692)-Avi-His6; His6 (C); settings: single-cycle kinetics, 30° C., geometric mean, read-out: Assay 2 (PCSK9 BIAcore DBA Cr) GMean Kd
Procedure: The SPR binding experiments were performed on a Biacore S200 optical biosensor unit at 30° C. A Series S Sensor Chip SA that is designed to bind biotinylated molecules for interaction analysis in Biacore systems was equilibrated at room temperature prior to use. The running buffer for protein tethering and subsequent ligand binding experiments was 10 mM HEPES pH 7.4, 150 mM NaCl, 0.05% (v/v) Tween 20 pH 7.4.
For the surface tethering of PCSK9, biotinylated human PCSK9 (31-692)-Avi-His6 at a concentration of 0.5 mg/mL was used. Prior to the surface tethering, the surface was exposed to a solution of 50 mM NaOH, 500 mM NaCl via 3 consecutive injections of this solution with a contact time of 60 s and a flowrate of 10 μL min^−1 to remove non-conjugated streptavidin. The PCSK9 protein was diluted to a concentration of 20 μg/mL using running buffer and injected with a contact time of 180-300 s and a flowrate of 10 μL min^−1 over a single flow channel (typically flow channel 2 or flow channel 4) with the aim to achieve protein capture levels of >5000 response units (RU). Remaining biotin binding sites were blocked via 2 consecutive injections of a 10 μM D-biotin solution in running buffer with a contact time of 60 s and a flowrate of 10 μL min^−1 over all flow-channels. Flow-channels 1 and 3 typically served as a reference surface throughout the subsequent binding experiments.
The binding experiments were all performed at a flow rate of 30 PL min^−1 and by employing the method of single-cycle kinetics. This approach involves the sequential injection of a compound concentration series without regeneration steps. A contact time between 90-150 s was selected, which was followed by a 40 min dissociation phase to allow for a proper estimation of the dissociation rate constant. Test compounds were delivered in DMSO at a concentration of 10 mM and a digital dispenser HP D300 was used to set up the compound concentration series using 6 concentrations. The tested concentrations have been 30, 100, 300, 1000, 3000 and 10000 nM. Prior to injecting any compound, the surfaces were equilibrated by injecting running buffer over them in three separate pulses. The data collection rate was set to 10 Hz.
The raw sensorgrams of the compound injections were first subjected to reference subtraction (subtracting the signal from flow channel 1 and/or 3 from the signal from channels 2 and/or 4 respectively) and then blank subtraction (subtracting the signal from injecting DMSO controls from the reference subtracted data). The resulting double-referenced sensorgrams were then fitted using a 1:1 binding interaction model using the manufactures software package to extract kinetic- and affinity data. Active compounds have been defined by creating a detectable binding signal at the highest compound concentration ([…]) of 3 RUs. Kinetic- and affinity data on active compounds are only provided for those compounds where the binding signal at the highest compound concentration ([…]) is 50% of the theoretical maximum binding signal for a 1:1 binding interaction (Rmax, typically between 15-20 RUs) in order to enable a proper fitting of the data.
Target sequence in this assay (Q8NBP7 31-692): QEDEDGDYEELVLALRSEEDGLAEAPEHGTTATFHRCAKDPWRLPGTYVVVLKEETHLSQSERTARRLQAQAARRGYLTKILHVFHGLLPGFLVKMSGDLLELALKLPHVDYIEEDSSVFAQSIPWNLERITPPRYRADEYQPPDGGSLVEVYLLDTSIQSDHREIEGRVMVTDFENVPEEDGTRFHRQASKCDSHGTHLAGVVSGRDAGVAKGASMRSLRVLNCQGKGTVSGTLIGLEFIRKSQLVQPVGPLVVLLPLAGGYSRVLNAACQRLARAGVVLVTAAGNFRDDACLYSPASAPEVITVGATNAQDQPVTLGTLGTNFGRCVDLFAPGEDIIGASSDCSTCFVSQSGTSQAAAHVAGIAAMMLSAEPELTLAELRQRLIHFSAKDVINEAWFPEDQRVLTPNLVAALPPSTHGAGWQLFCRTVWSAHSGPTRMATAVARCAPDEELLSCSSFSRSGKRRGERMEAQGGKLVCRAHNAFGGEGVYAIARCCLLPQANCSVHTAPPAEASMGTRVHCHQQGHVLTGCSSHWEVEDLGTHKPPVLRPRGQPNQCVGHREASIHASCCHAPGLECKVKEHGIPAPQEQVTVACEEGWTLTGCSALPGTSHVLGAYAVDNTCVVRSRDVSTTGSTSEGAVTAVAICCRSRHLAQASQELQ

[4] = target: GSK3β (Glycogen synthase kinase-3 beta) (Homo sapiens, UniProt P49841); experiment: Assay 6 GSK3β assay (ThermoFisher Z-Lyte FRET); format: biochemical; settings: ATP Conc: 10 μM, geometric mean; read-out: Assay 6 (GSK3β FRET-Z-Lyte Cr) GMean IC50
GSK3β (Glycogen synthase kinase-3 beta), sequence (P49841 whole entry): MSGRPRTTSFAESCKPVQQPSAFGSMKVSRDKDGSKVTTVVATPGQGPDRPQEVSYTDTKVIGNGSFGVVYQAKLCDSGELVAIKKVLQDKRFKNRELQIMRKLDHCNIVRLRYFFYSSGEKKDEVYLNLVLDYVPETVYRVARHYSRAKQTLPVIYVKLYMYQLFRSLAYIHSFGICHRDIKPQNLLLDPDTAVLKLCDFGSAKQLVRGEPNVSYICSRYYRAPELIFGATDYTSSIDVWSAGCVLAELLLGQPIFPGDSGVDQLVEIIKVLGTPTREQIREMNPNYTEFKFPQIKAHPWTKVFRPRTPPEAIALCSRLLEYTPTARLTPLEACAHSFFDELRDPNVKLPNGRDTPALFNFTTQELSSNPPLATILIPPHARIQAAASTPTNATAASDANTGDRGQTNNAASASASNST
How it was run: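 Z-Lyte FRET: 0.22-0.92 ng kinase with 2 μM Ser/Thr 09 peptide in HEPES pH 7.5, MgCl2, EGTA, 60 min at room temperature, then 60 min development. Compounds in 1% DMSO, 10-point 3-fold series from 10 μM; sigmoidal dose-response fit.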

PCSK9 [5] = target: T1, PCSK9; experiment: Assay 3 PCSK9 LDL-C uptake assay in HepG2 cells; format: cell-based; design: TEV site (C); His6 (C); host or cells: added to HepG2 (ATCC #HB-8065); settings: 125 nM PCSK9, pHrodo Red-LDL, read-out: Assay 3 LDL uptake potency
Excerpt: This assay measures for PCSK9 antagonist activity based on a test compound's capacity to restore LDL-C-uptake in HepG2 cells. The assay is based on exogenous PCSK9 and LDL-C complexed with a pH-sensitive dye. Outside the cells, at neutral pH, the pHrodo Red-LDL is dimly fluorescent but upon LDLR mediated endocytosis it fluoresces brightly. PCSK9 traffics the LDLR to intracellular degradation and reduces uptake of LDL-C. Inhibition of PCSK9 reduces LDLR degradation and the increased LDL-C uptake is quantified by fluorescence microscopy.
• Cell medium: MEM supplemented with 10% FBS, 1×NEAA and Sodium Pyruvate • Assay medium: OptiMem supplemented with penicillin/streptomycin • Cells: HepG2 (ATCC #HB-8065)
• 1. Cryopreserved HepG2 cells were thawed in assay medium and centrifuged for 5 min at 250 g. Supernatant was discarded and the cell pellet resuspended in cell medium and counted with a Nucleocounter. Cells were again centrifuged 5 min at 250 g and the pellet was resuspended to 500000 cells/mL in assay medium. • 2. 20 μL of above cell mix was dispensed into black μclear TC treated 384 well plates with Multidrop Combi and left at room temperature for 20 minutes. • 3. Plates were incubated at 37° C., 5% CO2 for 24 h
• 1. Test compounds were prepared in concentration response in DMSO with a half-log dilution factor in DMSO in Echo 384 LDV plates starting at 10 mM. • 2. 30 nL of above test compounds were dispensed with Echo 655 to cells for a top concentration of 10 μM • 3. 10 μL PCSK9 in assay medium was dispensed to cells with Multidrop Combi for 125 nM final concentration in the wells. • 4. Plates were incubated at 37° C., 5% CO2 for 24 h
• 1. 10 μL pHrodo Red-LDL in assay medium was dispensed to cells with Multidrop Combi for […] • 2. Plates were incubated at 37° C., 5% CO2 and imaged with the Incucyte S3 after 4 h and 24 h
Image data was processed using Incucyte 2021, a software to identify cells and red fluorescent intensity. Screener was used to further process data. Data was normalized as % effect of the signal between median values of the on-plate controls of DMSO and 100 nM Evolocumab according to the formula % effect=−100*(x−DMSO)/(Evolocumab−DMSO) where x equals the measured signal. Concentration response data of the normalized values were fitted using a four-parameter logistic fit.

PCSK9 [6] = target: T3, PCSK9; design: host or cells: patients; settings: clinical trials, patients; alirocumab compared to placebo; cited from earlier work
Target sequence in this assay (Q8NBP7 153-692): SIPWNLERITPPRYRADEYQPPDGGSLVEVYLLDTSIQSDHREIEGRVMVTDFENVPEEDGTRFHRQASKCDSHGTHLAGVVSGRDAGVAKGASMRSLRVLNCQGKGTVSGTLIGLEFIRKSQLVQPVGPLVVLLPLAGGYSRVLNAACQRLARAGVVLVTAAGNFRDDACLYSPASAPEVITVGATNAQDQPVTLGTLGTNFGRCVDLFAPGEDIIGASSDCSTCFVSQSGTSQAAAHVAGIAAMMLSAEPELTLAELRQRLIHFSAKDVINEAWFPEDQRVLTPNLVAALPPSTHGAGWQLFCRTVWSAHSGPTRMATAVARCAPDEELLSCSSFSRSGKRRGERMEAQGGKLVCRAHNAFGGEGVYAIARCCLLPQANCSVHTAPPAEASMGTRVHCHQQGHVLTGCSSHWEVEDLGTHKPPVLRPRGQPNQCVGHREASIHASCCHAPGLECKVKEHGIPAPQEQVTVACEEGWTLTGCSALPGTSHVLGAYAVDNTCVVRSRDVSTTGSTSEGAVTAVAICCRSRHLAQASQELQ

T1 sequence (Q8NBP7 with tags, fused parts or gaps V474I/G670E): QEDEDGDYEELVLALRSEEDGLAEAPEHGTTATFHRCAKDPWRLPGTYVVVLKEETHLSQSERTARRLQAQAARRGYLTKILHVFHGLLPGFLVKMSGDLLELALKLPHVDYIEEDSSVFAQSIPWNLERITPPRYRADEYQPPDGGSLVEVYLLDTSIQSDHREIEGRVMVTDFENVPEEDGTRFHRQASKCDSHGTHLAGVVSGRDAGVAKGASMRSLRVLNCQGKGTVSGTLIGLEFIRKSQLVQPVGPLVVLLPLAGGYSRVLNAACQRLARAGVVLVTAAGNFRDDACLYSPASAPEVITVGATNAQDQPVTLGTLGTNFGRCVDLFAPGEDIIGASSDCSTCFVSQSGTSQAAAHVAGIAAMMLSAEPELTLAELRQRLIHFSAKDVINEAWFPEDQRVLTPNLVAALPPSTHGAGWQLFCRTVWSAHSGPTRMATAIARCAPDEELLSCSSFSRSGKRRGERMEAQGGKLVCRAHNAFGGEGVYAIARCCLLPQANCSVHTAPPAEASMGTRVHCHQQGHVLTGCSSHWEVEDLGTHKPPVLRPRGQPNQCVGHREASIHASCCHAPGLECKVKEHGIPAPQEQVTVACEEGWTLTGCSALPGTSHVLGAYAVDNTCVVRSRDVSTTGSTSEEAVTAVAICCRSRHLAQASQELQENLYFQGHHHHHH

Compound | IC50 (PCSK9 [1]) | IC50 [2] | Kd (PCSK9 [3]) | IC50 [4] | EC50 (PCSK9 [5]) | decrease in LDL levels (PCSK9 [6])
O=C(NCC(F)F)c1cnc(N[C@H]2CC[C@H](Nc3ccc(-n4ccccc4=O)cn3)C2)nn1 [Example 71, N-(2,2-Difluoroethyl)-3-(((1S,3S)-3-((2-oxo-2H-[1,3′-bipyridin]-6′-yl)amino)cyclopentyl)amino)-1,2,4-triazine-6-carboxamide] | 46 nM | > 40000 nM | 63 nM | > 10000 nM | – | –
O=C(NCCO)c1cnc(N[C@H]2CC[C@H](Nc3ccc(-n4ccccc4=O)cn3)C2)nn1 [Example 72, N-(2-Hydroxyethyl)-3-(((1S,3S)-3-((2-oxo-2H-[1,3′-bipyridin]-6′-yl)amino)cyclopentyl)amino)-1,2,4-triazine-6-carboxamide] | 205 nM | > 40000 nM | 170 nM | > 10000 nM | – | –
CCNC(=O)c1cnc(N[C@H]2CC[C@H](Nc3ccc(-n4ccccc4=O)cn3)C2)nn1 [Example 73, N-Ethyl-3-(((1S,3S)-3-((2-oxo-2H-[1,3′-bipyridin]-6′-yl)amino)cyclopentyl)amino)-1,2,4-triazine-6-carboxamide] | 75 nM | > 40000 nM | 48 nM | > 10000 nM | – | –
NC(=O)c1cnc(N[C@H]2CC[C@H](Nc3ccc(-n4ccccc4=O)cn3)C2)nn1 [Example 74, 3-(((1S,3S)-3-((2-Oxo-2H-[1,3′-bipyridin]-6′-yl)amino)cyclopentyl)amino)-1,2,4-triazine-6-carboxamide] | 85 nM | > 40000 nM | 80 nM | 8300 nM | – | –
CN(C)C(=O)c1cnc(N[C@H]2CC[C@H](Nc3ccc(-n4ccccc4=O)cn3)C2)nn1 [Example 76, N,N-Dimethyl-3-(((1S,3S)-3-((2-oxo-2H-[1,3′-bipyridin]-6′-yl)amino)cyclopentyl)amino)-1,2,4-triazine-6-carboxamide] | 485 nM | > 40000 nM | 125 nM | > 10000 nM | – | –
Cc1cnnc(N[C@H]2CC[C@H](Nc3ccc(-n4ccccc4=O)cn3)C2)n1 [Example 126, 6′-(((1S,3S)-3-((5-Methyl-1,2,4-triazin-3-yl)amino)cyclopentyl)amino)-2H-[1,3′-bipyridin]-2-one] | 744 nM | > 40000 nM | 954 nM | > 10000 nM | – | –
Cc1nnc(N[C@H]2CC[C@H](Nc3ccc(-n4ccccc4=O)cn3)C2)nc1C [Example 127, 6′-(((1S,3S)-3-((5,6-Dimethyl-1,2,4-triazin-3-yl)amino)cyclopentyl)amino)-2H-[1,3′-bipyridin]-2-one] | 193 nM | > 40000 nM | 248 nM | > 10000 nM | – | –
COc1ccnn(-c2ccc(N[C@H]3CC[C@H](Nc4ncc(C)nn4)C3)nc2)c1=O [Example 220, 4-Methoxy-2-(6-(((1S,3S)-3-((6-methyl-1,2,4-triazin-3-yl)amino)cyclopentyl)amino)pyridin-3-yl)pyridazin-3(2H)-one] | 1.7 nM | > 200000 nM | – | > 10000 nM | 200 nM | –
Cc1cnc(N[C@H]2CC[C@H](Nc3ccc(-n4nccc(OC(F)F)c4=O)cn3)C2)nn1 [Example 281, 4-(Difluoromethoxy)-2-(6-(((1S,3S)-3-((6-methyl-1,2,4-triazin-3-yl)amino)cyclopentyl)amino)pyridin-3-yl)pyridazin-3(2H)-one] | 2.5 nM | > 40100 nM | – | > 10000 nM | 300 nM | –
Cc1cnc(N[C@H]2CC[C@H](Nc3ccc(-n4ncc5cccnc54)cn3)C2)nn1 [Example 310, (1S,3S)—N′-(5-(1H-Pyrazolo[3,4-b]pyridin-1-yl)pyridin-2-yl)-N^3-(6-methyl-1,2,4-triazin-3-yl)cyclopentane-1,3-diamine] | 22 nM | 35000 nM | 19 nM | > 10000 nM | – | –
Cc1cnc(N[C@H]2CC[C@H](Nc3ccc(-n4ncc5ccccc54)cn3)C2)nn1 [Example 311, (1S,3S)—N′-(5-(1H-Indazol-1-yl)pyridin-2-yl)-N^3-(6-methyl-1,2,4-triazin-3-yl)cyclopentane-1,3-diamine] | 5.5 nM | 7600 nM | 6.9 nM | > 10000 nM | – | –
alirocumab | – | – | – | – | – | about 50%
